Consider 10 compounds from ChEMBL document CHEMBL1201862, “PubChem BioAssay data set” (2004).

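Tested at 5 concentrations; 48 h exposure; 96-well plates; endpoints linearly interpolated, else capped at highest concentration. GI50 = concentration required for 50% inhibition of growth.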 Calls of active or inactive are those of the source. No stated cut-off is given here; in the data, active = GI50 up to about 1.1 µM and inactive = higher. Some results are limits rather than exact numbers.

Some test systems named below: MCF7; PC-3; OVCAR-5; SW-620; SR; ACHN; A498; UO-31; RPMI-8226; HL-60; HOP-92; NCI-H460; Hs-578T; MOLT-4; MDA-MB-231; SK-MEL-28; CAKI-1; UACC-62; HCC 2998; SK-OV-3.
What all share (experiment): NCI-60 cell line screen, 48 h

On to `CCCCCCCCCCCCCCCCC(=O)NCC(=O)NCC(=O)NC(Cc1ccccc1)C(=O)Oc1ccc([N+](=O)[O-])cc1` (centres undefined), for which the GI50 with MCF7 was 48.4 µM (inactive); in the experiment on PC-3, 31.5 µM (inactive); with OVCAR-5, 27.5 µM (inactive); in the experiment with SW-620 it was 19.4 µM (inactive); in the experiment on SR it was 25 µM (inactive); in the experiment on ACHN it was > 100 µM (inactive). The GI50 with A498 was > 100 µM (inactive); in the experiment with UO-31 it was 67.9 µM (inactive); with RPMI-8226, 21 µM (inactive); in the experiment on HL-60, 50 µM (inactive); in the experiment with HOP-92, 32.1 µM (inactive); with NCI-H460, 18.3 µM (inactive). The GI50 is > 100 µM (inactive) in the experiment on Hs-578T; 16.4 µM (inactive) in the experiment with MOLT-4; 23.4 µM (inactive) in the experiment with MDA-MB-231; 15.8 µM (inactive) with SK-MEL-28; 17.2 µM (inactive) in the experiment on CAKI-1; 20.7 µM (inactive) in the experiment with UACC-62. For the same compound, the GI50 in the experiment on HCC 2998 was 17.7 µM (inactive).
With `O=C(CCCn1ccnc1[N+](=O)[O-])NCCn1cncc1[N+](=O)[O-]`, the GI50 in the experiment on MCF7, in the experiment with SK-OV-3, with PC-3, in the experiment with OVCAR-5, in the experiment with SW-620 and in the experiment on SR was > 100 µM (inactive) in each case. The GI50 with ACHN, in the experiment with A498, with UO-31, in the experiment with RPMI-8226, in the experiment with HL-60 and in the experiment on HOP-92 was > 100 µM (inactive) throughout. Also, the GI50 in the experiment on NCI-H460, in the experiment with Hs-578T, in the experiment on MOLT-4, in the experiment on MDA-MB-231, in the experiment on SK-MEL-28 and with CAKI-1 was > 100 µM (inactive) in each case. The GI50 in the experiment with UACC-62 is > 100 µM (inactive).
Regarding `CCCCCCC(=O)c1ccc2ccccc2c1O`, the GI50 in the experiment with MCF7 was 33.4 µM (inactive); in the experiment with SK-OV-3 it was 52.4 µM (inactive); in the experiment with PC-3, 61 µM (inactive); in the experiment on SW-620 it was 64.7 µM (inactive); in the experiment on SR, 33.3 µM (inactive); in the experiment on ACHN, 54 µM (inactive). Further, the GI50 in the experiment on A498 was 0.318 µM (active); with UO-31, 47.6 µM (inactive); with RPMI-8226 it was 98.4 µM (inactive); in the experiment with HL-60 it was 36.4 µM (inactive); in the experiment on HOP-92 it was 93.3 µM (inactive); with NCI-H460 it was 52.4 µM (inactive). Moreover, the GI50 in the experiment with Hs-578T was 56 µM (inactive); with MOLT-4, 20.3 µM (inactive); with MDA-MB-231, 85.5 µM (inactive); in the experiment on SK-MEL-28, > 100 µM (inactive); in the experiment on CAKI-1, 43.2 µM (inactive); in the experiment on UACC-62, 47 µM (inactive). Also, the GI50 with HCC 2998 was > 100 µM (inactive).
As to `CC1(C#N)CC(C)(C)C(/C=C2/CC(C)(C)C(/C=C3/OC(=N)CC3(C)C)=N2)=N1` (centres undefined), the GI50 was 12.3 µM (inactive) in the experiment with MCF7; 20.4 µM (inactive) with SK-OV-3; 30.6 µM (inactive) with PC-3; 80.4 µM (inactive) with OVCAR-5; 34.4 µM (inactive) with SW-620; 28.5 µM (inactive) in the experiment on SR. Besides, the GI50 is 21.3 µM (inactive) in the experiment on ACHN; 10.5 µM (inactive) in the experiment with A498; 20 µM (inactive) in the experiment on RPMI-8226; 21.9 µM (inactive) with HL-60; 12 µM (inactive) with HOP-92; 15.8 µM (inactive) with NCI-H460. Also, the GI50 in the experiment on Hs-578T was 19.2 µM (inactive); in the experiment with MOLT-4, 28.7 µM (inactive); with MDA-MB-231 it was 33.6 µM (inactive); in the experiment on SK-MEL-28, 51.9 µM (inactive); in the experiment with CAKI-1 it was 40 µM (inactive); with UACC-62, 20.7 µM (inactive). The GI50 in the experiment on HCC 2998 is 32.2 µM (inactive).
For `CC(=O)OC[C@@H]1[C@H]2CC[C@]3(C)[C@@H](OC(C)=O)CC[C@H]3[C@@H]2CC[C@H]1C1(C)SCCS1`, the GI50 in the experiment on MCF7, with PC-3, in the experiment with OVCAR-5, with SW-620, in the experiment on SR and in the experiment on ACHN was > 25 µM (inactive) in each case. Moreover, the GI50 in the experiment on A498, with UO-31, in the experiment on RPMI-8226, in the experiment with HL-60, in the experiment with HOP-92 and with NCI-H460 was > 25 µM (inactive) throughout. The GI50 in the experiment on Hs-578T, in the experiment on MOLT-4, in the experiment with MDA-MB-231, in the experiment with SK-MEL-28, in the experiment with CAKI-1 and with HCC 2998 was > 25 µM (inactive) each time.
For `O=C1CCCC1C(O)(C(F)(F)F)C(F)(F)F` (centres undefined), the GI50 with MCF7, in the experiment on PC-3, with OVCAR-5, in the experiment on SW-620, in the experiment on SR and with ACHN was > 100 µM (inactive) throughout. The GI50 with A498, in the experiment with UO-31, in the experiment with RPMI-8226, in the experiment on HL-60, in the experiment with HOP-92 and in the experiment on NCI-H460 was > 100 µM (inactive) each time. For the same compound, the GI50 in the experiment on Hs-578T, in the experiment with MOLT-4, with MDA-MB-231, in the experiment on SK-MEL-28, with CAKI-1 and in the experiment on UACC-62 was > 100 µM (inactive) throughout. Also, the GI50 with HCC 2998 is > 100 µM (inactive).
`C1=Cc2ccccc2C1.C=C(C)c1ccccc1.[N-]=[N+]=Nc1ccccc1`: the GI50 with MCF7 was 31.3 µM (inactive); in the experiment with SK-OV-3 it was > 100 µM (inactive); in the experiment on PC-3, > 100 µM (inactive); in the experiment with OVCAR-5, > 100 µM (inactive); with SW-620, 67.3 µM (inactive); with SR, > 100 µM (inactive). For the same compound, the GI50 with ACHN is > 100 µM (inactive); in the experiment with A498 it was > 100 µM (inactive); in the experiment with UO-31 it was > 100 µM (inactive); with RPMI-8226 it was 80 µM (inactive); with HL-60, 62.4 µM (inactive); in the experiment on HOP-92 it was 47.1 µM (inactive). Besides, the GI50 in the experiment on NCI-H460 was 90.4 µM (inactive); with Hs-578T, 39.1 µM (inactive); in the experiment on MOLT-4 it was 96.2 µM (inactive); in the experiment on MDA-MB-231, > 100 µM (inactive); in the experiment on SK-MEL-28, > 100 µM (inactive); in the experiment on CAKI-1 it was > 100 µM (inactive). The GI50 in the experiment on UACC-62 was 45.8 µM (inactive).
As for `CC(C)(CCCCC(C)(C)NCC1COc2ccccc2O1)NCC1COc2ccccc2O1` (centres undefined), the GI50 was 5.98 µM (inactive) with MCF7; > 10 µM (inactive) in the experiment with SK-OV-3; > 10 µM (inactive) in the experiment on PC-3; > 10 µM (inactive) in the experiment on OVCAR-5; 9.75 µM (inactive) in the experiment with SW-620; > 10 µM (inactive) in the experiment on SR. Further, the GI50 with ACHN is > 10 µM (inactive); in the experiment on A498, > 10 µM (inactive); in the experiment with RPMI-8226 it was > 10 µM (inactive); in the experiment on HL-60, > 10 µM (inactive); with HOP-92, 2.19 µM (inactive); in the experiment with NCI-H460, > 10 µM (inactive). Moreover, the GI50 with Hs-578T is 5.66 µM (inactive); in the experiment on MOLT-4, > 10 µM (inactive); in the experiment on MDA-MB-231, 3.54 µM (inactive); with SK-MEL-28 it was 2.16 µM (inactive); with CAKI-1, > 10 µM (inactive); with UACC-62, 3.43 µM (inactive). The GI50 in the experiment with HCC 2998 is 2.42 µM (inactive).
As to `CCOC(=O)c1c(NC(=O)OC)c(C#N)c2n1CCCCC2`, the GI50 with MCF7, in the experiment on SK-OV-3, in the experiment with PC-3, in the experiment with SW-620, with SR and in the experiment on ACHN was > 100 µM (inactive) each time. Further, the GI50 in the experiment with A498 was > 100 µM (inactive); in the experiment with UO-31 it was > 100 µM (inactive); in the experiment with RPMI-8226 it was > 100 µM (inactive); in the experiment on HL-60, > 100 µM (inactive); in the experiment with HOP-92, 93.3 µM (inactive); with NCI-H460, > 100 µM (inactive). Besides, the GI50 in the experiment with Hs-578T is > 100 µM (inactive); in the experiment on MOLT-4, 45.1 µM (inactive); with MDA-MB-231, 35.7 µM (inactive); with SK-MEL-28 it was > 100 µM (inactive); in the experiment with CAKI-1, > 100 µM (inactive); in the experiment on UACC-62, > 100 µM (inactive). For the same compound, the GI50 with HCC 2998 was > 100 µM (inactive).
`COc1ccc(/N=N/C(=N/NC(=O)c2ccc(C)cc2)c2ccc(N(CCC#N)CCC#N)cc2OC)cc1`: the GI50 was > 100 µM (inactive) with MCF7; > 100 µM (inactive) with SK-OV-3; > 100 µM (inactive) in the experiment on PC-3; > 100 µM (inactive) with OVCAR-5; > 100 µM (inactive) with SW-620; 36.6 µM (inactive) in the experiment with SR. The GI50 in the experiment on ACHN is > 100 µM (inactive); with A498 it was > 100 µM (inactive); in the experiment with UO-31 it was > 100 µM (inactive); in the experiment on HL-60, < 0.01 µM (active); in the experiment on HOP-92, > 100 µM (inactive); in the experiment on NCI-H460, > 100 µM (inactive). The GI50 in the experiment with Hs-578T, with MOLT-4, with MDA-MB-231, in the experiment with SK-MEL-28, with CAKI-1 and with UACC-62 was > 100 µM (inactive) in each case. Also, in the experiment with HCC 2998, the GI50 was > 100 µM (inactive).
